From patent US10519152B2, “Compounds and their use in treating cancer” (AstraZeneca AB, priority 2017, dated 2019)
Where a name gives a salt, the structure may show the parent alone.

What follows are compounds tested against T1, recombinant human Estrogen Receptor alpha ligand binding domain, residues 307-554 (ER alpha-LBD (GST)) (Homo sapiens, UniProt P03372) (assay: ERα binding assay (LanthaScreen TR-FRET competition)). Details: TR-FRET competition with Fluormone ES2 tracer, 4 hours at room temperature; single experiment or average of two or more.
T1 construct: made in house
T1 sequence (P03372 307-554): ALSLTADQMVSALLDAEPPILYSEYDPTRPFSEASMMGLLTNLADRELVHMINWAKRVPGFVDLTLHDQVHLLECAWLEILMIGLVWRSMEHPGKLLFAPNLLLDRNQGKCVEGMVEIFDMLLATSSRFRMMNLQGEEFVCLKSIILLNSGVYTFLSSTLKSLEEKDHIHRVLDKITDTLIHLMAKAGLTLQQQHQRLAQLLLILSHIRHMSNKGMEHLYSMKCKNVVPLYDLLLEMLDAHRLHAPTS

Row | SMILES | IC50
1 | Cc1ncsc1-c1ccc([C@H](C)NC(=O)[C@@H]2C[C@@H](O)CN2C(=O)[C@@H](NC(=O)COCCOCCOCCOc2cc(F)c([C@@H]3c4[nH]c5ccccc5c4C[C@@H](C)N3CC(C)(C)F)c(F)c2)C(C)(C)C)cc1 [Example 3, (2S,4R)-1-((S)-2-(tert-Butyl)-14-(3,5-difluoro-4-((1R,3R)-2-(2-fluoro-2-methylpropyl)-3-methyl-2,3,4,9-tetrahydro-1H-pyrido[3,4-b]indol-1-yl)phenoxy)-4-oxo-6,9,12-trioxa-3-azatetradecanoyl)-4-hydroxy-N—((S)-1-(4-(4-methylthiazol-5-yl)phenyl)ethyl)pyrrolidine-2-carboxamide] | 0.8 nM
2 | Cc1ncsc1-c1ccc(CNC(=O)[C@@H]2C[C@@H](O)CN2C(=O)[C@@H](NC(=O)COCCOCCOCCOc2cc(F)c([C@@H]3c4[nH]c5ccccc5c4C[C@@H](C)N3CC3(F)CC3)c(F)c2)C(C)(C)C)cc1 [Example 77, (2S,4R)-1-((S)-2-(tert-Butyl)-14-(3,5-difluoro-4-((1R,3R)-2-((1-fluorocyclopropyl)methyl)-3-methyl-2,3,4,9-tetrahydro-1H-pyrido[3,4-b]indol-1-yl)phenoxy)-4-oxo-6,9,12-trioxa-3-azatetradecanoyl)-4-hydroxy-N-(4-(4-methylthiazol-5-yl)benzyl)pyrrolidine-2-carboxamide] | 2.6 nM
3 | Cc1ncsc1-c1ccc(CNC(=O)[C@@H]2C[C@@H](O)CN2C(=O)[C@@H](NC(=O)COCc2cccc(CCCOc3cc(F)c([C@@H]4c5[nH]c6ccccc6c5C[C@@H](C)N4CC(C)(C)F)c(F)c3)c2)C(C)(C)C)cc1 [Example 74, (2S,4R)-1-((S)-2-(2-((3-(3-(3,5-Difluoro-4-((1R,3R)-2-(2-fluoro-2-methylpropyl)-3-methyl-2,3,4,9-tetrahydro-1H-pyrido[3,4-b]indol-1-yl)phenoxy)propyl)benzyl)oxy)acetamido)-3,3-dimethylbutanoyl)-4-hydroxy-N-(4-(4-methylthiazol-5-yl)benzyl)pyrrolidine-2-carboxamide] | 0.8 nM
4 | Cc1ncsc1-c1ccc(CNC(=O)[C@@H]2C[C@@H](O)CN2C(=O)[C@@H](NC(=O)COCCOCCNC(=O)/C=C/c2cc(F)c([C@@H]3c4[nH]c5ccccc5c4C[C@@H](C)N3CC(C)(C)F)c(F)c2)C(C)(C)C)cc1 [Example 58, (2S,4R)-1-((S,E)-2-(tert-butyl)-15-(3,5-difluoro-4-((1R,3R)-2-(2-fluoro-2-methylpropyl)-3-methyl-2,3,4,9-tetrahydro-1H-pyrido[3,4-b]indol-1-yl)phenyl)-4,13-dioxo-6,9-dioxa-3,124-diazapentadec-4-enoyl)-4-hydroxy-N-(4-(4-methylthiazol-5-yl)benzyl)pyrrolidine-2-carboxamide, Trifluoroacetic Acid] | 0.9 nM
5 | Cc1ncsc1-c1ccc(CNC(=O)[C@@H]2C[C@@H](O)CN2C(=O)[C@@H](NC(=O)COCCOCCOCCNC(=O)/C=C/c2cc(F)c([C@@H]3c4[nH]c5ccccc5c4C[C@@H](C)N3CC(C)(C)F)c(F)c2)C(C)(C)C)cc1 [Example 63, (2S,4R)-1-((S,E)-2-(tert-butyl)-18-(3,5-difluoro-4-((1R,3R)-2-(2-fluoro-2-methylpropyl)-3-methyl-2,3,4,9-tetrahydro-1H-pyrido[3,4-b]indol-1-yl)phenyl)-4,16-dioxo-6,9,12-trioxa-3,15-diazaoctadec-17-enoyl)-4-hydroxy-N-(4-(4-methylthiazol-5-yl)benzyl)pyrrolidine-2-carboxamide, Trifluoroacetic Acid] | 1 nM
6 | Cc1ncsc1-c1ccc(CNC(=O)[C@@H]2C[C@@H](O)CN2C(=O)[C@@H](NC(=O)COCCNC(=O)/C=C/c2cc(F)c([C@@H]3c4[nH]c5ccccc5c4C[C@@H](C)N3CC(C)(C)F)c(F)c2)C(C)(C)C)cc1 [Example 62, (2S,4R)-1-((S)-2-(2-(2-((E)-3-(3,5-difluoro-4-((1R,3R)-2-(2-fluoro-2-methylpropyl)-3-methyl-2,3,4,9-tetrahydro-1H-pyrido[3,4-b]indol-1-yl)phenyl)acrylamido)ethoxy)acetamido)-3,3-dimethylbutanoyl)-4-hydroxy-N-(4-(4-methylthiazol-5-yl)benzyl)pyrrolidine-2-carboxamide, Trifluoroacetic Acid] | 0.5 nM
7 | Cc1ncsc1-c1ccc(CNC(=O)[C@@H]2C[C@@H](OC(=O)[C@H](C)NC(=O)[C@@H](N)C(C)C)CN2C(=O)[C@@H](NC(=O)COCCOCCOCCOc2cc(F)c([C@@H]3c4[nH]c5ccccc5c4C[C@@H](C)N3CC(C)(C)F)c(F)c2)C(C)(C)C)cc1 [Example 100, (3R,5S)-1-((S)-2-(2-(2-(2-(2-(3,5-Difluoro-4-((1R,3R)-2-(2-fluoro-2-methylpropyl)-3-methyl-2,3,4,9-tetrahydro-1H-pyrido[3,4-b]indol-1-yl)phenoxy)ethoxy)ethoxy)ethoxy)acetamido)-3,3-dimethylbutanoyl)-5-((4-(4-methylthiazol-5-yl)benzyl)carbamoyl)pyrrolidin-3-yl L-valyl-L-alaninate Formate] | 0.8 nM
8 | Cc1ncsc1-c1ccc(CNC(=O)[C@@H]2C[C@@H](O)CN2C(=O)[C@@H](NC(=O)c2cnn(CCOCCNC(=O)/C=C/c3cc(F)c([C@@H]4c5[nH]c6ccccc6c5C[C@@H](C)N4CC(C)(C)F)c(F)c3)c2)C(C)(C)C)cc1 [Example 64, 1-(2-(2-((E)-3-(3,5-difluoro-4-((1R,3R)-2-(2-fluoro-2-methylpropyl)-3-methyl-2,3,4,9-tetrahydro-1H-pyrido[3,4-b]indol-1-yl)phenyl)acrylamido)ethoxy)ethyl)-N—((S)-1-((2S,4R)-4-hydroxy-2-((4-(4-methylthiazol-5-yl)benzyl)carbamoyl)pyrrolidin-5-yl)-3,3-dimethyl-1-oxobutan-2-yl)-1H-pyrazole-4-carboxamide, Trifluoroacetic Acid] | 0.4 nM
